Test results from ChEMBL document CHEMBL1201862, “PubChem BioAssay data set” (2004).
Each block holds one compound with its values, some of them ahead of it. Calls of active or inactive are those of the source.

Columns and labels:
[1] = mouse fibroblast viability loss – cell-based, cherry-pick samples, set 2, cytotoxicity control for T. cruzi growth inhibitor project, dose response (AID 651817); type: functional; details: NIH3T3
Paired box protein Pax-8 = Paired box protein Pax-8 (Homo sapiens, UniProt Q06710); test: PAX8 transcriptional activity inhibition in RMG-I – RMG-I cells, luciferase, cherry-pick, dose response (AID 687027); type: functional, cell-based;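 further: luciferase reporter driven by Pax8 target thyroperoxidase promoter measured by SteadyGlo luminescence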
[2] = general cell-killing toxicity readout – plate reader, dry powder samples, cytotoxicity control for PAX8 inhibitor project, dose response (AID 743021); type: functional, cell-based
[3] = A2780 cell killing – plate reader, dry powder samples, cytotoxicity control, dose response (AID 743046); type: functional, cell-based
[4] = OVCAR-3 cell viability loss – plate reader, dry powder samples, PAX8 inhibitor project, dose response (AID 743044); type: functional, cell-based
[5] = IGROV1 cell killing – plate reader, dry powder samples, PAX8 inhibitor project, dose response (AID 743043); type: functional, cell-based; details: IGROV-1
[6] = general mammalian cell viability loss – activator set, cherry-pick, cytotoxicity control for miR-122 modulator project, dose response (AID 720690); type: functional, cell-based;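 further: HEK293T human cells scored for general mammalian cytotoxicity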
[7] = OVCAR8 cell viability loss – plate reader, dry powder samples, PAX8 project, dose response (AID 743197); type: functional, cell-based; details: OVCAR-8
cells [8] = type: functional, cell-based
[9] = biological target: T1, Trace amine-associated receptor 1 (Homo sapiens, UniProt Q96RJ0); test: Fluorescence-based cell-based high throughput dose response assay to identify agonists of the human trace amine associated receptor 1 (TAAR1).; type: functional
T1 sequence (Q96RJ0 whole entry): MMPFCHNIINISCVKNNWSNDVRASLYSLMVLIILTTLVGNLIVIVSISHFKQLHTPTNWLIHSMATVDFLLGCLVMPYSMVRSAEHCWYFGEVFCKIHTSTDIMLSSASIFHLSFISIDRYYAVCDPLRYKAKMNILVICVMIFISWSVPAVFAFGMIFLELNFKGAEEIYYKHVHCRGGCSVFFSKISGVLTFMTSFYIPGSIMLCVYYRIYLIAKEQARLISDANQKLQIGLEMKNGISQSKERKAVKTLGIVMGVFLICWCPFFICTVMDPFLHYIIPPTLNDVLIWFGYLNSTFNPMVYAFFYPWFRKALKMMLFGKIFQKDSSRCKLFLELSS

[10] = biological target: T1, Trace amine-associated receptor 1; test: Counterscreen for agonists of the human trace amine associated receptor 1 (hTAAR1): Fluorescence-based cell-based high throughput dose response assay to identify hTAAR1 agonist that also desensitize TAAR1 receptor response.; type: functional
cells [11] = type: functional, cell-based; remark: listed apart in the source
[12] = anti-trypanosomal activity in BESM host cells – imaging, CA-I/72 strain, bovine embryo skeletal muscle, dry powder, dose response (AID 651885); type: functional, cell-based
[13] = biological target: Endoplasmic reticulum aminopeptidase 1 (Homo sapiens, UniProt Q9NZ08); test: inhibition of human ERAP1 enzyme activity – biochemical, cherry-pick, set 2, plate reader, dose response (AID 743314)
[14] = biological target: T2, Oxysterols receptor LXR-beta (Homo sapiens, UniProt P55055); type: functional, cell-based;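 further: agonist activity at LXR measured by a cell-based luminescence readout across a dose range, run as a counterscreen for daf-12 agonists; HEK293 cells with Gal4-LXR fusion and GAL4-driven luciferase reporter; potency for activation of Gal4-LXR reporter so compounds are agonists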
T2 sequence (P55055 whole entry): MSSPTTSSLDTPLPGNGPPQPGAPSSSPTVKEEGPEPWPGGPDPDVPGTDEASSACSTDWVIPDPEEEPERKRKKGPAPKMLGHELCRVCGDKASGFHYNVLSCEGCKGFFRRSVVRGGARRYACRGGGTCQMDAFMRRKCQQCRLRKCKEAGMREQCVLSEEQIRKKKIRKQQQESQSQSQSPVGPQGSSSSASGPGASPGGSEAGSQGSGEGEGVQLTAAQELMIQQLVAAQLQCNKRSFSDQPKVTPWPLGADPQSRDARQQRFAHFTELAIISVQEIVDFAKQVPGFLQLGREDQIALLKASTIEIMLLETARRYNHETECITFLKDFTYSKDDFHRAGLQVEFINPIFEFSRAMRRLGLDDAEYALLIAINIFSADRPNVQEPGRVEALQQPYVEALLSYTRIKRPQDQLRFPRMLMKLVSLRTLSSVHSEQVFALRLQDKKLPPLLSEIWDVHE

[15] = biological target: FAD-linked sulfhydryl oxidase ALR (Homo sapiens, UniProt P55789); test: ALR-catalysed DTT oxidation blockers – biochemical, H2O2 detection, luminescence, cherry-pick, dose response (AID 493248)
cells [16] = type: functional, cell-based; remark: listed apart in the source
[17] = biological target: T3, Nuclear receptor subfamily 0 group B member 1 (Homo sapiens, UniProt P51843); type: functional, cell-based;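 further: HEK293T cells transfected with SF-1 and DAX-1 plus StAR promoter luciferase reporter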
T3 sequence (P51843 whole entry): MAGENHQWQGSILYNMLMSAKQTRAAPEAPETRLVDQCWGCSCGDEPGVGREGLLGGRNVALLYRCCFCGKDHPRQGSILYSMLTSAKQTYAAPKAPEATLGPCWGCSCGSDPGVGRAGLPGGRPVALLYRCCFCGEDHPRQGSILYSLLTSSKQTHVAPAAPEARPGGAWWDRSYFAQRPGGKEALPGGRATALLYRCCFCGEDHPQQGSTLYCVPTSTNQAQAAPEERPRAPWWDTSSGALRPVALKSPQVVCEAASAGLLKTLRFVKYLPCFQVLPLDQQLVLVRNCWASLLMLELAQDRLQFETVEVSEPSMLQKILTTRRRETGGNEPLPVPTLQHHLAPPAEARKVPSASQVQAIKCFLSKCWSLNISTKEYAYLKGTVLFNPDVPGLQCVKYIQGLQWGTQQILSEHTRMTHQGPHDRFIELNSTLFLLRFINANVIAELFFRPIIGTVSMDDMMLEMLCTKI

Paired box protein Pax-8, sequence (Q06710 whole entry): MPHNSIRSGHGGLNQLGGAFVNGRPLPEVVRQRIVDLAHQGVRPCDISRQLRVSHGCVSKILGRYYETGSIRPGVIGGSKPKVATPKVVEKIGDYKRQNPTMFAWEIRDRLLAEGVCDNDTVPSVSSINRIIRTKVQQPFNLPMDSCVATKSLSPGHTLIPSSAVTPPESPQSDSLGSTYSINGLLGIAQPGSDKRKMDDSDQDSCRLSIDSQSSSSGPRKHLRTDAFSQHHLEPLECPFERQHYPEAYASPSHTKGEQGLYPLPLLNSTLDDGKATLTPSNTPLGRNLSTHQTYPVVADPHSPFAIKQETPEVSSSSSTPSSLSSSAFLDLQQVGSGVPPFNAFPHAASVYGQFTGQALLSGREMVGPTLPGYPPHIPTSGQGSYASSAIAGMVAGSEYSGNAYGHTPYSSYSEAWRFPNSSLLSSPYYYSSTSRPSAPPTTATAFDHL
FAD-linked sulfhydryl oxidase ALR, sequence (P55789 whole entry): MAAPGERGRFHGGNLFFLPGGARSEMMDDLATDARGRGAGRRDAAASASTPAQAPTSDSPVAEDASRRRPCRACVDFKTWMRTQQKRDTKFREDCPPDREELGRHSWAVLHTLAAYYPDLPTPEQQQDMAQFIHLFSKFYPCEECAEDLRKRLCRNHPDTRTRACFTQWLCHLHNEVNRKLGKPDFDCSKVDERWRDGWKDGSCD
Endoplasmic reticulum aminopeptidase 1, sequence (Q9NZ08 whole entry, the tested form may be a part): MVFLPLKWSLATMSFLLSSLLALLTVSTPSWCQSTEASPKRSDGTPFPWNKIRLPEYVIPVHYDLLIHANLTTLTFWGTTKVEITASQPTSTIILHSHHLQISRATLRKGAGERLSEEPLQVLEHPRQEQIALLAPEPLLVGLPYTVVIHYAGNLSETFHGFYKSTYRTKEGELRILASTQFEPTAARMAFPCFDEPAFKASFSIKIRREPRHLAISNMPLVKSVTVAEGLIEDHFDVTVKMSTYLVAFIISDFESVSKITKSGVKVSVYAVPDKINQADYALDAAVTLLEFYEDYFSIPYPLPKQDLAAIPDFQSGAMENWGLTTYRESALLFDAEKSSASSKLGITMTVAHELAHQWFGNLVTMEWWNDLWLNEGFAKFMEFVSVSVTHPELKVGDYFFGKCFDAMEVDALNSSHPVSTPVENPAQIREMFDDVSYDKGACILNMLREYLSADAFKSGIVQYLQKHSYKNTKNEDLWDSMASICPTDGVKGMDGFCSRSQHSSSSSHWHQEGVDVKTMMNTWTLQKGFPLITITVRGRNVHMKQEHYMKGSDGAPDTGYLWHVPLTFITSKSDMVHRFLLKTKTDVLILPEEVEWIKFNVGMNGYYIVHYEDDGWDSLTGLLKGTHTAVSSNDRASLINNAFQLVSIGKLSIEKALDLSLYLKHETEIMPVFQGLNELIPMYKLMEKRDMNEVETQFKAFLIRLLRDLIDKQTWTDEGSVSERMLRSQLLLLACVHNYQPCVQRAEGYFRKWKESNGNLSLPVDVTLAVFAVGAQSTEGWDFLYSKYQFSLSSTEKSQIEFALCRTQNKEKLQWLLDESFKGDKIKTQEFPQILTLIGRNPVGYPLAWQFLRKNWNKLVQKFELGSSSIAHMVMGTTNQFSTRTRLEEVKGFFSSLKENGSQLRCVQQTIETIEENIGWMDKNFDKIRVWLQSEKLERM

SMILES: C[C@H]1CN([C@@H](C)CO)C(=O)Cc2cc(NS(=O)(=O)c3ccc(F)cc3)ccc2O[C@H]1CN(C)Cc1ccc(Cl)c(Cl)c1
AC50 [1]: 39 µM (inactive)

SMILES: C[C@H](CO)N1C[C@H](C)[C@H](CN(C)Cc2ccc3c(c2)OCO3)OCCCC[C@H](C)Oc2ccc(NC(=O)Nc3ccc(C(F)(F)F)cc3)cc2C1=O
AC50 (Paired box protein Pax-8): 9.15 µM (active)
AC50 [2]: 46.4 µM (active)

SMILES: C[C@@H]1CN([C@@H](C)CO)S(=O)(=O)c2ccc(C#Cc3ccccc3F)cc2O[C@H]1CN(C)C(=O)c1ccc2c(c1)OCO2
AC50 (Paired box protein Pax-8): 4.88 µM (active)
AC50 [3]: 765 nM (active)
AC50 [4]: 6.2 µM (active)
AC50 [5]: 28.5 µM (active)
AC50 [6]: 5.74 µM (active)
AC50 [7]: 17.7 µM (active)

SMILES: Cc1ccccc1-c1ccc([C@@H]2[C@@H]3CN(C(=O)Nc4cccc(F)c4)C[C@H]2N3)cc1
AC50 (Paired box protein Pax-8): 30.7 µM (active)
AC50 [4]: 37.4 µM (active)
AC50 [5]: 21.8 µM (active)
AC50 [2]: 22.9 µM (active)

SMILES: O=C(N[C@@H](Cc1cccnc1)C(=O)N1CCC[C@H]1C(=O)NCCc1ccccc1Cl)c1ccc(Cl)c(Cl)c1
IC50 (cells [8]): > 29.9 µM (inactive)
EC50 [9]: 2.9 µM (active)
IC50 [10]: 2.6 µM (active)
EC50 (cells [11]): > 29.9 µM (inactive)

SMILES: CC(C)N1C[C@H](C)[C@@H](CN(C)Cc2ccccc2Cl)Oc2c(NC(=O)c3ccncc3)cccc2C1=O
IC50 [12]: 0.0201 µM (active)

SMILES: C[C@@H]1CN([C@@H](C)CO)C(=O)c2cccc(NC(=O)c3ccncc3)c2O[C@H]1CN(C)Cc1ccncc1
IC50 [12]: 17.3 µM (inconclusive)

SMILES: CN1C(=O)c2cc(NC(=O)c3ccc(C(F)(F)F)cc3)ccc2OC[C@@H]2O[C@@H](CC(=O)NCc3ccc4c(c3)OCO4)CC[C@H]21
AC50 [6]: 20.3 µM (active)

AC50 [13]: 13 µM (active)
SMILES: O=C(NCCc1ccncc1)[C@@H]1N[C@@H]2c3ccc(/C=C/c4ccccc4)c(=O)n3C[C@@H]2[C@H]1CO

EC50 [14]: > 67.6 µM (inactive)
SMILES: C/C(=N\NC(=O)OC(C)(C)C)c1ccc[nH]1

SMILES: COc1c(O)cc2oc(-c3ccc(O)cc3)cc(=O)c2c1O [HISPIDULIN]
AC50 [15]: 572 nM (active)
IC50 (cells [16]): > 67.5 µM (inactive)
IC50 [17]: > 834 nM (active)
